Results from patent US8461202B2, “Composition for treating infectious diseases” (priority 2007, dated 2013).

Key:
H. pylori flavodoxin = target: T1, H. pylori flavodoxin (Helicobacter pylori, UniProt O25776); experiment: Inhibition of the sequential electron transfer reaction pyruvate-PFOR-flavodoxin-FqrB-NADP+ (NADPH formation at 340 nm); assay type: biochemical; conditions: 50 μM compound; anaerobic; absorbance at 340 nm; 10 μM Fld
T1 construct: made in house; host or cells: E. coli BL21 (flavodoxin); E. coli JVQ2 (PFOR); E. coli BL21(DE3) (FqrB)
T1 sequence (O25776 1-164): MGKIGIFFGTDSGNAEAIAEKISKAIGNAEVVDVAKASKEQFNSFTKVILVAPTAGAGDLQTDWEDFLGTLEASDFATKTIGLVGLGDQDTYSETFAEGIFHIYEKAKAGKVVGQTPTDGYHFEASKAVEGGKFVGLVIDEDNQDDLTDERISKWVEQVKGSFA
Text: Measurement of the absorbance (A) (AU is the unit of absorbance) at 340 nm against time (t) in seconds (s).
Flavodoxin is an essential protein for Helicobacter pylori survival as it participates in a fundamental reaction for obtaining energy from the oxidative decarboxylation of pyruvate. In this reaction, flavodoxin transfers electrons between the PFOR enzyme and the FqrB enzyme, which releases them to NADP^+.
The sequential reaction of electron transfer between pyruvate, PFOR, flavodoxin, FqrB and NADP^+ (activity assay) was followed spectroscopically by the appearance of the signal at 340 nm with the formation of NADPH. The reaction mixture contained 100 mM potassium phosphate pH 7, 10 mM pyruvate, 0.18 mM CoA, 1 mM MgCl, 0.3 mM NADP^+, 0.09 mg/ml PFOR, 10 μM Fld and 0.15 μM FqrB. The mixture, except CoA, was placed in a cuvette specially designed for anaerobic conditions. Oxygen was removed by means of 5 minute cycles with alternate flows of vacuum and argon. The reaction was started by the addition of 0.18 mM coenzyme A (CoA) that was held in a compartment inside the same cuvette. The reaction completed 15 minutes after adding the CoA reagent.
The inhibition assays were carried out in the same conditions as the activity assays previously described, adding an additional 50 μM of the disclosed compound of the general formula shown in (II) to the reaction cuvette.

flavodoxin of H. pylori = target: T2, flavodoxin of H. pylori (Helicobacter pylori, UniProt O25776); experiment: Binding to flavodoxin by isothermal titration calorimetry (ITC); conditions: 50 mM EPPS buffer, pH 9 with 7% DMSO, protein around 20 μM, read-out: affinity for flavodoxin (affinity constant)
T2 construct: made in house; host or cells: E. coli BL21
Method: The specific binding of the inhibitors of the present invention to flavodoxin of H. pylori was confirmed by isothermal titration calorimetry (ITC). This technique not only measures the affinity of each compound for the target protein, but also determines the contribution of the enthalpic and entropic components of binding.
The binding experiments were carried out in 50 mM EPPS buffer, pH 9 with 7% DMSO, with the inhibitor in the injection syringe at a concentration of 300-500 μM, and the protein around 20 μM in the measurement cell.

## O=[N+]([O-])/C=C/c1cc(C(F)(F)F)cc(C(F)(F)F)c1 [(II)]
H. pylori flavodoxin
  inhibition of product (NADPH) formation in the essential reaction of H. pylori: almost total
Flavodoxin of H. pylori
  Kd: 8 µM
